These results are taken from patent publication US20080280996A1, “Use of Carophyllenes in the Manufacture of Medicaments and Treatment of Bodily Conditions of Inflammation and Inflammatory Pain” (priority 2004, published 2008).

Structures are written as SMILES.

For assay [1] the following is noted: reference: Carcinogenesis (2002), 23(5), 795-802; cited from earlier work.
Assay [2] has as its system carrageenin-induced inflammatory nociception in the hind paw. Nature of the assay: Inflammatory nociception induced by carrageenin (von Frey filament). It is filed as in vivo. Conditions: mice, carrageenin 300 μg per paw intraplantar; alpha-humulene 50 mg/kg orally or paracetamol 600 mg/kg orally, 1 h before; evaluated after 3, 4 and 6 hours. As for the experimental part: The evaluation methodology used in this test is described by Vaz et al. in J. Pharmacol. Exp. Ther. 278:304-312, 1996. Male mice (25-35 g) were systemically (orally) treated with alpha-humulene, 50 mg/kg, administered 1 hour before the experiment. Animals treated with 0.9% saline solution (0.1 ml/10 g) were used as the control. Another group of animals was treated with paracetamol (600 mg/kg, orally, administered 1 h before the treatment), that was used as positive control. For the induction of inflammatory pain, the animals received an intraplantar injection of 0.05 ml of carrageenin (300 μg per paw) at the plantar surface of the right hind paw. […] The nociception was evaluated with a Von Frey filament (0.4 g) after 3, 4 and 6 hours. […] The filament was applied to the right hind paw, complying with the criteria of (1) the application was perpendicular to the plantar surface, with enough pressure to cause the filament to bend, thus obtaining total pressure; (2) the animals were evaluated when the four paws were touching the screen; (3) the paw withdrawal response was considered when the animal removed the paw entirely from the support screen; (4) each animal was stimulated 10 consecutive times, each stimulation lasting 1 second; (5) each paw withdrawal event was considered as 10% of the response, with 10 withdrawal events corresponding to 100% response. […]
On the technique in general: The carrageenan paw model is a standard test of acute inflammation.

Assay [3] concerns carrageenin-induced paw oedema. As to the kind of experiment: Carrageenin oedema in mouse paw. It is filed as in vivo. Conditions: mice, carrageenin intraplantar; alpha-humulene 50 mg/kg orally 1 h before; dexamethasone 0.5 mg/kg subcutaneously 4 h before; 30 min to 48 h. The method, then:
The test used below is described by Cunha et. al. in the publication Life Sci. 70:159-169, 2001. […] The left paw received the same volume of saline and was taken as a negative control. The swelling was measured with a plethysmometer (manufacturer: Ugo Basile, Italy) along various time intervals after the injection of the phlogistic agent. The difference between the volumes of the right and the left paw were quantified (in ml) and taken as an index of oedema. One hour before the test the animals were systemically treated (orally) with 50 mg/kg of alphahumulene or trans-caryophyllene. Graph 2 below compares the inhibition of the volume of the oedema by administration of either alpha-humulene or trans-caryophyllene with inhibition obtained with the administration of dexamethasone (0.5 mg/kg, injected subcutaneously 4 h before test) and used as positive control. Oedema volume measurement time point intervals were 30, 60, 120 and 240 min, 24 h and 48 h. Each point represents the average of 5 animals, and the vertical bars the mean standard error deviation.

Assay [4] has as its system bradykinin-induced paw oedema. Nature of the assay: Bradykinin oedema in mouse paw. It is filed as in vivo. Conditions: mice, bradykinin 3 nmol/paw intraplantar, captopril pre-treatment; 50 mg/kg orally 1 h before; 10 min to 48 h. The method, then:
The test used below is described by Cunha et. al. in the publication Life Sci. 70:159-169, 2001. Male 25 g-35 g mice were slightly sedated with ether and were injected 50 μl saline containing bradykinin (BK, 3 nmol/paw), intraplantar, in the right paw. The left paw received the same volume of saline and was taken as negative control. The swelling was measured with a plethysmometer (manufacturer: Ugo Basile, Italy) along various time points intervals after the injection of the phlogistic agent. The difference between the volumes of the right and the left paw were quantified (in ml) and taken as an index of oedema. One hour before the test the animals were systemically treated (orally) with 50 mg/kg of alpha-humulene or with trans-caryophyllene. The animals were pre-treated with 5 mg/kg of captopril, injected subcutaneously, 1 hour before the test, in order to avoid degradation of […]. Graphs 3A and 3B below compare the inhibition of the volume of the oedema by administration of alpha-humulene (3A) or trans-caryophyllene (3B). Oedema volume measurement time intervals were 10, 20, 30, 60, and 120 min, 24 h and 48 h. Each point represents the average of 5 animals, and the vertical bars the mean standard error deviation.

The subject of another assay is TNFα. As to the kind of experiment: Levels of pro-inflammatory cytokine TNFα in carrageenin-injected rat paw (Elisa). The assay is classed as in vivo. Conditions: 50 mg/kg orally 60 minutes before carrageenin 300 μg/paw, tissue after 180 minutes. As for the experimental part: The test used below is described by Campos et. al. in the publication Br. J. Pharmacol. 135: 1107-1114, 2002, with minor modifications.
Male […]-180 g rats were orally given 50 mg/kg of trans-caryophyllene. Animals treated with 0.9% (0.1 ml/10 g) saline were used as control. Another group of animals was treated with 0.5 mg/kg dexamethasone, subcutaneously, 4 hours before the test, and used as positive control. After 60 minutes, the animals received intraplantar injections of 100 μl of carrageenin (300 μg/paw) and were sacrificed after 180 minutes. Control animals received saline. The subcutaneous tissue of the injected paws was removed and put in a phosphate buffer containing 0.5% tween 20, 0.1 mM benzametonium chloride, 10 mM EDTA, 2 μg/m aprotinin, 0.1 mM PMSF (phenyl methyl sulfonyl fluoride) and 0.5% BSA (bovine serum albumin). The tissues were homogenized and centrifuged at 3000 g, for 10 min, at −4° C. The supernatant was used in the test. The levels of TNFαwere measures with an Elisa kit, according to the manufacturer's instructions (R & D Systems®, USA). The tests were performed in duplicate, and repeated three times. The answers are expressed in pg/mg of tissue. […]

In the case of `C/C1=C\CC/C(C)=C/CC(C)(C)/C=C/C1` [alpha-humulene], in assay [1], the “anti-inflammatory or chemo-therapic effects” value was “virtually inactive”. The “inflammatory nociception (paw withdrawal response to 0.4 g von Frey filament)” value in assay [2] is listed as “reduced the inflammatory nociception”. For the same compound, in assay [3], the “inflammatory volume (paw oedema volume)” value is given as “reduced the inflammatory volume”. Also, in assay [4], the bradykinin-induced paw oedema entry is on record as “markedly reduced bradykinin-induced paw oedema”.
As to `C=C1CC/C=C(\C)CC[C@@H]2[C@@H]1CC2(C)C` [trans-caryophyllene], in the assay on TNFα, the “production of pro-inflammatory cytokine TNFα induced by carrageenin in the paws of rats” value is reported as “markedly inhibited the production”. Further, the bradykinin-induced paw oedema result in assay [4] is given as “markedly reduced bradykinin-induced paw oedema”.
